Results reported in US20080076664A1, “Fungicidal Compositions” (priority 2004, published 2008).
Where “and” joins values, the source holds several entries; their conditions need not be identical. Equal entries are not always repeated.

Tests used:
Alternaria solani = test: Fungal growth assay, control of Alternaria solani (Example B-4 a); format: cell-based
Source text: (§1) The action to be expected E for a given active ingredient combination obeys the so-called COLBY formula and can be calculated as follows (COLBY, S. R. “Calculating synergistic and antagonistic responses of herbicide combination”. Weeds, Vol. 15, pages 20-22; 1967):
(§2) According to COLBY, the expected (additive) action of active ingredients A)+B) using p+q ppm of active ingredient is
(§3) If the action actually observed (O) is greater than the expected action (E), then the action of the combination is super-additive, i.e. there is a synergistic effect. In mathematical terms the synergism factor SF corresponds to O/E. In the agricultural practice an SF of ≧1.2 indicates significant improvement over the purely complementary addition of activities (expected activity), while an SF of ≦0.9 in the practical application routine signals a loss of activity compared to the expected activity.
Conidia—harvested from a freshly grown colony—of the fungus were directly mixed into nutrient broth (PDB potato dextrose broth). After placing a (DMSO) solution of the test compounds into a microtiter plate (96-well format) the nutrient broth containing the fungal spores was added. […] The fungicide interactions in the combinations are calculated according to COLBY method.

Leptosphaeria nodorum = test: Fungal growth assay, control of Leptosphaeria nodorum (Example B-8); format: cell-based
Source text: as §1, §2, §3
Action Against Leptosphaeria nodorum (Glume Blotch)—Fungal Growth Assay
Conidia of the fungus from cryogenic storage were directly mixed into nutrient broth (PDB potato dextrose broth). After placing a (DMSO) solution of the test compounds into a microtiter plate (96-well format) the nutrient broth containing the fungal spores was added. […] The fungicide interactions in the combinations are calculated according to COLBY method.

[1] = component B) alone, 0.022 ppm [mg/L]
[2] = component B) alone, 0.067 ppm [mg/L]
[3] = component B) alone, 0.002 ppm [mg/L]
[4] = component B) alone, 0.007 ppm [mg/L]
[5] = Cpd Ia alone, 0.0001 ppm [mg/L]
[6] = Cpd Ia alone, 0.0003 ppm [mg/L]
[7] = Cpd Ia alone, 0.0074 ppm [mg/L]
[8] = component B) alone, 0.600 ppm [mg/L]

SMILES	Observed control in % (% Cobs) (Alternaria solani; [1]) [%]	Observed control in % (% Cobs) (Alternaria solani; [2]) [%]	Observed control in % (% Cobs) (Leptosphaeria nodorum; [3]) [%]	Observed control in % (% Cobs) (Leptosphaeria nodorum; [4]) [%]	Observed control in % (% Cobs) (Alternaria solani; [3]) [%]	Observed control in % (% Cobs) (Alternaria solani; [4]) [%]	Observed control in % (% Cobs) (Alternaria solani; [8]) [%]	Observed control in % (% Cobs) (Leptosphaeria nodorum; [2]) [%]	Observed control in % (% Cobs) (Leptosphaeria nodorum; [1]) [%]	further results
CO/C=C(/C(=O)OC)c1ccccc1Oc1cc(Oc2ccccc2C#N)ncn1 [Azoxystrobin]	0	31	5	14						
Cn1cc(C(=O)Nc2ccccc2-c2ccc(C#CC(C)(C)C)cc2)c(C(F)F)n1 [Cpd Ia]										Observed control in % (% Cobs) (Alternaria solani; [5]): 6% and 0%; Observed control in % (% Cobs) (Alternaria solani; [6]): 6% and 0% and 4%; Observed control in % (% Cobs) (Alternaria solani; Cpd Ia alone, 0.0008 ppm [mg/L]): 0%; Observed control in % (% Cobs) (Alternaria solani; [7]): 40% and 46% and 27%; Observed control in % (% Cobs) (Alternaria solani; Cpd Ia alone, 0.0667 ppm [mg/L]): 50% and 60%; Observed control in % (% Cobs) (Leptosphaeria nodorum; [5]): 0% and 2%; Observed control in % (% Cobs) (Leptosphaeria nodorum; [6]): 0%; Observed control in % (% Cobs) (Leptosphaeria nodorum; Cpd Ia alone, 0.0025 ppm [mg/L]): 0%; Observed control in % (% Cobs) (Leptosphaeria nodorum; [7]): 0%; Observed control in % (% Cobs) (Leptosphaeria nodorum; Cpd Ia alone, 0.0222 ppm [mg/L]): 9% and 0% and 5% and 6%; Observed control in % (% Cobs) (Leptosphaeria nodorum; Cpd Ia alone, 0.2000 ppm [mg/L]): 32% and 30%
CC(C1CC1)C(O)(Cn1cncn1)c1ccc(Cl)cc1 (stereo not drawn) [Cyproconazole]			3	0	3	0	15	4		
N#Cc1c[nH]cc1-c1cccc2c1OC(F)(F)O2 [Fludioxonil]	0	25	7		0	0		9		
Cc1cc(C2CC2)nc(Nc2ccccc2)n1 [Cyprodinil]	0	30			3	0				
CCCC1COC(Cn2cncn2)(c2ccc(Cl)cc2Cl)O1 (stereo not drawn) [Propiconazole]			12			0			11	
N#Cc1c(Cl)c(Cl)c(Cl)c(C#N)c1Cl [Chlorotalonil, Chlorothalonil]			1	0	9		6	6	0	
CC(Cc1ccc(C(C)(C)C)cc1)CN1CCCCC1 (stereo not drawn) [Fenpropidin]		0		4	0		0		0	
